Data published in ChEMBL document CHEMBL3792292, “Development of a potent and selective FLT3 kinase inhibitor by systematic expansion of a non-selective fragment-screening hit” (Bioorg Med Chem Lett, 2016).

Key:
[1] = biological target: T1, Receptor-type tyrosine-protein kinase FLT3 (Homo sapiens, UniProt P36888); assay: Inhibition of human N-terminal GST-tagged FLT3 cytoplasmic domain (564 to 993 residues) expressed in baculovirus expression system using 5-FAM-peptide 2 as substrate after 2 hrs by electrophoretic mobility shift assay in presence of ATP
T1 sequence (P36888 whole entry): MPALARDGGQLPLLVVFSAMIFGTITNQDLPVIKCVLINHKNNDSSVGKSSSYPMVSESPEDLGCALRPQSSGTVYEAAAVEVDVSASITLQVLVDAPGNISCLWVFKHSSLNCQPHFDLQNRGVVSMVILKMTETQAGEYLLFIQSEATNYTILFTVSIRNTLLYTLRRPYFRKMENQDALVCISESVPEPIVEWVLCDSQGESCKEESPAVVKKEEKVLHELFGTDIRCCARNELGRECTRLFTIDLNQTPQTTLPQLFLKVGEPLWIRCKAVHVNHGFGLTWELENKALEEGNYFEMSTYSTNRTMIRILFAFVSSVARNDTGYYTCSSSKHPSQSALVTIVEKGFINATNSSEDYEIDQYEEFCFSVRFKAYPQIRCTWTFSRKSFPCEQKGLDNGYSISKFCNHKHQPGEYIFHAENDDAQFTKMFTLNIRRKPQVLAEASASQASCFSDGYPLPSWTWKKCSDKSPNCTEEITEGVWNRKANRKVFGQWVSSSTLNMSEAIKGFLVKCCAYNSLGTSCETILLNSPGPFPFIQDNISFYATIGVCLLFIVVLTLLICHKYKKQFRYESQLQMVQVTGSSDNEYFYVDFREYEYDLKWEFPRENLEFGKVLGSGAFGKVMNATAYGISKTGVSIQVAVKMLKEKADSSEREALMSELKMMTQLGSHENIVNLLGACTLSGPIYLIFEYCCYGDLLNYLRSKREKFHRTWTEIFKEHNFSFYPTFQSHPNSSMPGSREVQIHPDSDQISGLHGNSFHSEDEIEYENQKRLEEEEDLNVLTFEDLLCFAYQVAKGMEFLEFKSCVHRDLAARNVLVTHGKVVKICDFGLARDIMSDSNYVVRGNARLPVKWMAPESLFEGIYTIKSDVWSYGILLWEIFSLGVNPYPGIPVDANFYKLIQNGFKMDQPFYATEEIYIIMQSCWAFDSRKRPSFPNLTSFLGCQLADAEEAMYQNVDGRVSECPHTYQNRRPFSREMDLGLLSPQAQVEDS

[2] = biological target: Hepatocyte growth factor receptor (Homo sapiens) (UniProt P08581); assay: Inhibition of human N-terminal GST-tagged MET cytoplasmic domain (956 to 1390 residues) expressed in baculovirus expression system using fluorescence labelled srctide as substrate at 50 times IC50 by electrophoretic mobility shift assay relative to control
[3] = biological target: T2, Serine/threonine-protein kinase 4 (Homo sapiens) (UniProt Q13043); assay: Inhibition of full length human N-terminal GST-tagged MST1 (1 to 487 residues) expressed in baculovirus expression system using fluorescence labelled IRS1 as substrate at 50 times IC50 by electrophoretic mobility shift assay relative to control
T2 sequence (whole entry): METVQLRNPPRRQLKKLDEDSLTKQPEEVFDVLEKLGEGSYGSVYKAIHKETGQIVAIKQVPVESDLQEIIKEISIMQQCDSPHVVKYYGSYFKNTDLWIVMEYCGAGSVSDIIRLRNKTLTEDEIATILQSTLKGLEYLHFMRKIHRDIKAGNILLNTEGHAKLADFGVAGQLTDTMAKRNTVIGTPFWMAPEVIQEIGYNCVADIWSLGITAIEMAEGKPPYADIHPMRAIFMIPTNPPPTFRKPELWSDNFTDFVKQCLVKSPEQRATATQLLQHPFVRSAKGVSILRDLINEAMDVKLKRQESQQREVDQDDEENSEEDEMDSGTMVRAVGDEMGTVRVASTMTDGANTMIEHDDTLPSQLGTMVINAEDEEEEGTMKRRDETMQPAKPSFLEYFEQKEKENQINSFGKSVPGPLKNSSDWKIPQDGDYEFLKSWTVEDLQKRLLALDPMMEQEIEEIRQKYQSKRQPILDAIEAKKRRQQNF

[4] = biological target: T3, Serine/threonine-protein kinase D2 (Homo sapiens) (UniProt Q9BZL6); assay: Inhibition of full length human N-terminal GST-tagged PKD2 (1 to 878 residues) expressed in baculovirus expression system using fluorescence labelled GS peptide substrate at 50 times IC50 by electrophoretic mobility shift assay relative to control
T3 sequence (whole entry): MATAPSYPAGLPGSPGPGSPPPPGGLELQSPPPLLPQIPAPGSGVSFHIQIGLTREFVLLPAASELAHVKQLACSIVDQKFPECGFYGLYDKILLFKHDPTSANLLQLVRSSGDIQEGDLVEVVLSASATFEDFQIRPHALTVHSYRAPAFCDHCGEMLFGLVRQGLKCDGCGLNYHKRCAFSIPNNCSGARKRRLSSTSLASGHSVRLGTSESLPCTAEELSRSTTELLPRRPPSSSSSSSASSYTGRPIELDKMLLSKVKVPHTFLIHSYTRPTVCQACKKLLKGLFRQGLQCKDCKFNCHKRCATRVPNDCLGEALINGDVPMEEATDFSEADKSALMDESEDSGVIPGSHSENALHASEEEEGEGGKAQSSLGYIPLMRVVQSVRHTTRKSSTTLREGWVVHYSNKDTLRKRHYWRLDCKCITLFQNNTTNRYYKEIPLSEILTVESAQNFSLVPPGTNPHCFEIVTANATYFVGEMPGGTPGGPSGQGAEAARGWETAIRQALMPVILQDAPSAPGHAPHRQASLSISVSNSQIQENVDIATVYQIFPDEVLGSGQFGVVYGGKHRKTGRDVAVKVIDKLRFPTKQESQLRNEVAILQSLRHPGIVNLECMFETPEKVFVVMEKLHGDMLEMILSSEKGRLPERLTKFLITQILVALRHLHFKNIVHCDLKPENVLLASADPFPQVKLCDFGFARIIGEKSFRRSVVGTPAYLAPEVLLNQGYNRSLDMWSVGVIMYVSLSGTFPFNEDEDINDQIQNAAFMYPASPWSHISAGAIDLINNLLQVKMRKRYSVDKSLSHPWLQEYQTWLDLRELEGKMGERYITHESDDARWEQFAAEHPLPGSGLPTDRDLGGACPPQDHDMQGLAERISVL

[5] = biological target: Serine/threonine-protein kinase pim-1 (Homo sapiens) (UniProt P11309); assay: Inhibition of full length human N-terminal His-tagged PIM1 (1 to 313 residues) expressed in baculovirus expression system using fluorescence labelled S6K2 peptide substrate at 50 times IC50 by electrophoretic mobility shift assay relative to control
[6] = biological target: Protein-tyrosine kinase 2-beta (Homo sapiens) (UniProt Q14289); assay: Inhibition of full length human N-terminal GST-tagged PYK2 (1 to 967 residues) expressed in baculovirus expression system using fluorescence labelled Blk/Lyntide as substrate at 50 times IC50 by electrophoretic mobility shift assay relative to control

Q: With `O=C(Nc1ccc(C(=O)N2CCN(c3ccccc3)CC2)cc1)c1n[nH]c2ccccc12` as the compound, how does the IC50 [1] read?
A: 34 nM

Q: What about the inhibition [2] of the same compound?
A: -0.6%

Q: What about the inhibition [3] of the same compound?
A: 16.8%

Q: What about the inhibition [4] of the same compound?
A: 5.7%

Q: And the inhibition [5]?
A: 3%

Q: And the inhibition [6]?
A: 34.9%

Q: How did the IC50 [1] turn out when `O=C(Nc1ccccc1)c1n[nH]c2ccccc12` was run?
A: 417 nM

Q: And the inhibition [2]?
A: 4.6%

Q: And the inhibition [3]?
A: 31.9%

Q: What about the inhibition [4] of the same compound?
A: 1.3%

Q: What about the inhibition [5] of the same compound?
A: 3.1%

Q: And the inhibition [6]?
A: 49.5%

Q: How did the IC50 [1] turn out when `O=C(Nc1ccc(CN2CCN(c3ccccc3)CC2)cc1)c1n[nH]c2ccccc12` was run?
A: 10 nM

Q: And the inhibition [2]?
A: -0.4%

Q: And the inhibition [3]?
A: 32.6%

Q: What about the inhibition [4] of the same compound?
A: 4.5%

Q: And the inhibition [5]?
A: 6%

Q: What about the inhibition [6] of the same compound?
A: 14.2%
